Read-outs that look alike come from different tables or passages of the source. Blank lines part the entries; values can stand above or below the compound they belong to.
Assays:
CYP2D6 [1] = conditions: cited from earlier work; for Ability to inhibit the CYP2D6 enzyme: SSRI antidepressants
[2] = set-up: method as in earlier work; conditions: escitalopram 20 mg daily for 12 weeks; hot flushes; cited from earlier work
CYP2D6 [3] = test system: CYP2D6; set-up: method as in PMID 11454728; conditions: cited from earlier work
[4] = Completion / discontinuation of 1-month escitalopram treatment; assay type: in vivo, human (post-menopausal breast cancer patients); conditions: n=24
Procedure: (§1) Data on age, body mass index (BMI; kg/m^2), stage of tumor, previous anti-neoplastic treatments, and concomitant medications were collected in each patient at study enrollment. Blood samples were collected twice, before and 1-month after the onset of escitalopram treatment to analyze change in plasma anastrozole as well as estradiol levels under escitalopram treatment. Anastrozole levels were also analyzed with respect to baseline characteristics including age (≤57 years vs. >57 years), BMI (≤29.9 kg/m^2 vs. >29.9 kg/m^2), radiotherapy (left vs. right breast, the side indicates the affected organs, none), chemotherapy (applied vs. none), tamoxifen (applied vs. none), tumor stage, estradiol levels (≤10 pg/mL vs. >10 pg/mL), concomitant medications (present vs. none) and in patients discontinued versus continued 1-month escitalopram treatment.
Patients were on anastrozole (1 mg/day) for at least 1 month (30±2 days), while escitalopram was initiated with a dose of 10 mg/day for the first 7 days and then the dose was gradually elevated to 20 mg/day to enable tolerance.

[5] = Liver and kidney functions after escitalopram; assay type: in vivo, human (post-menopausal breast cancer patients); conditions: continuers n=17; 1 month escitalopram with anastrozole
CYP 3A4 = test system: CYP 3A4; set-up: method as in PMID 17375980; conditions: cited from earlier work
CYP 2C19 = test system: CYP 2C19; set-up: method as in PMID 17375980; conditions: cited from earlier work
adrenergic receptors = test system: adrenergic receptors; set-up: method as in PMID 16266205; conditions: cited from earlier work
CYP3A4 = test system: CYP3A4; set-up: method as in PMID 11454728; conditions: cited from earlier work
serum estradiol = experiment: Serum estradiol levels before and after escitalopram; assay type: in vivo, human (post-menopausal breast cancer patients)
Procedure: as §1

cholinergic receptors = test system: cholinergic receptors; set-up: method as in PMID 16266205; conditions: cited from earlier work
histaminergic receptors = test system: histaminergic receptors; set-up: method as in PMID 16266205; conditions: cited from earlier work
CYP 2C9 = test system: CYP 2C9; set-up: method as in PMID 17375980; conditions: cited from earlier work
[6] = test system: depression-related symptoms; set-up: method as in PMID 22142651; conditions: escitalopram 5–20 mg/day; breast cancer patients; cited from earlier work
CYP 1A2 = test system: CYP 1A2; set-up: method as in PMID 17375980; conditions: cited from earlier work
CYP2C19 = test system: CYP2C19; set-up: method as in PMID 11454728; conditions: cited from earlier work
clinical = conditions: female, human, in vivo
Procedure: (§2) A total of 24 operated post-menopausal breast cancer patients who were co-prescribed with escitalopram while taking anastrozole for at least 1 month were included in this study. The inclusion criteria were being on anastrozole treatment (1 mg/day) for at least 1 month (30±2 days), being younger than age of 75, having no implementation of radiotherapy or chemotherapy in the past 3 months before the study enrollment and having normal renal and hepatic functions.
(§3) Plasma anastrozole levels were measured twice, once before and once 1 month (30±2 days) after the onset of escitalopram by high-performance liquid chromatography (HPLC). The blood samples were centrifuged at 4500 g for 5 min within the 1 hour following the sampling and stored at -80°C until analysis. The plasma samples were extracted by using diethyl ether:dichloromethane (80:20, v:v) and high-performance liquid chromatography analyses were performed in Agilent Triple Quadrupole Mass Spectrometry system. A reverse phase C18 column (poroshell SB-C18, 2.7µm, 3.0 × 100 mm) was used within the system. The mobile phase was comprised of 5 mM ammonium acetate and acetonitrile at a ratio of 15:85 (v:v). Tolterodine was used as an internal standard. The external standard calibration interval was 0.5–50 ng/mL (r^2: 0.9930). Before analysis, 5 mL venous blood samples were collected into Na-EDTA-containing glass tubes and the blood samples were centrifuged at 4500 g for 5 min within an hour following the sampling and stored at -80°C until analysis.
(§4) The time between the last dose of anastrozole and blood sampling was recorded. As there was a variation between the last anastrozole dose and the blood sampling time, the maximum plasma concentrations (Cmax) were extrapolated by using the following pharmacokinetic formula:

[7] = breast cancer patients, cited from earlier work
[8] = female, human, in vivo
Procedure: as §2, §3, §4

[9] = cited from earlier work
[10] = under anastrozole 1 mg/day, n=24

Structure (SMILES): CN(C)CCCC1(c2ccc(F)cc2)OCc2cc(C#N)ccc21 (stereo not drawn) [citalopram]
Ability to inhibit the CYP2D6 enzyme (CYP2D6 [1]): weak inhibition

Structure (SMILES): CNCCC(Oc1ccc(C(F)(F)F)cc1)c1ccccc1 (stereo not drawn) [fluoxetine]
Ability to inhibit the CYP2D6 enzyme (CYP2D6 [1]): strong inhibition

Patients who completed the 1-month escitalopram treatment [4]: 70.8%
Patients who discontinued escitalopram within the 1st week of treatment ([4]; 10 mg/day first 7 days): 29.2%
Change in liver and kidney functions after escitalopram administration [5]: No significant change
Structure (SMILES): CN(C)CCC[C@@]1(c2ccc(F)cc2)OCc2cc(C#N)ccc21 [escitalopram]
Patients who discontinued treatment due to side effects such as nausea and somnolence [2]: 14%
Share of CYP2D6 in bio-transformation of escitalopram (CYP2D6 [3]): 28%
Inhibition of CYP 3A4 (CYP 3A4): weak or negligible inhibition
Inhibition of CYP 2C19 (CYP 2C19): weak or negligible inhibition
Affinity for adrenergic receptors (adrenergic receptors): low affinity
Share of CYP3A4 in bio-transformation of escitalopram (CYP3A4): 35%
Change in estradiol levels after escitalopram administration (serum estradiol; continuers n=17, 1 month escitalopram with anastrozole): no change
Affinity for cholinergic receptors (cholinergic receptors): low affinity
Ability to inhibit the CYP2D6 enzyme (CYP2D6 [1]): weak inhibition
Inhibition of CYP 2D6 (CYP2D6 [1]): weak or negligible inhibition
Affinity for histaminergic receptors (histaminergic receptors): low affinity
Inhibition of CYP 2C9 (CYP 2C9): weak or negligible inhibition
Time to amelioration of depression-related symptoms [6]: ≤ 1 week
Inhibition of CYP 1A2 (CYP 1A2): weak or negligible inhibition
Share of CYP2C19 in bio-transformation of escitalopram (CYP2C19): 37%

concentration at 1 month (clinical; Plasma anastrozole levels, range): 0.0091 to 0.057 µg/mL
concentration at 1 month (clinical; Plasma anastrozole, post-escitalopram): 0.0404 µg/mL
Basal plasma anastrozole level [8]: 52.2 ng/mL
Plasma anastrozole, post-escitalopram [8]: 31.9 ng/mL
Plasma anastrozole, post-escitalopram ([8]; 1 month): 27.9 ng/mL
Structure (SMILES): CC(C)(C#N)c1cc(Cn2cncn2)cc(C(C)(C)C#N)c1 [Anastrozole, anastrozole]
Patients with serum estradiol levels >10 pg/mL (serum estradiol; [10]): 25%
Patients with serum estradiol levels ≤10 pg/mL (serum estradiol; [10]): 75%
Anastrozole concentrations, inter-individual range ([7]; past studies): 0.0 to 98.8 ng/mL
Anastrozole plasma steady-state concentration, mean ([7]; previous studies): 37.4 ng/mL
Anastrozole plasma steady-state concentration, median ([7]; previous studies): 32.2 ng/mL

Structure (SMILES): NC(=O)N1c2ccccc2C=Cc2ccccc21 [Carbamazepine]
Carbamazepine clearance, non-obese versus obese patients [9]: marginally higher
Carbamazepine clearance after major weight loss ([9]; six obese patients): significantly increased

Structure (SMILES): Fc1ccc([C@@H]2CCNC[C@H]2COc2ccc3c(c2)OCO3)cc1 [paroxetine]
Ability to inhibit the CYP2D6 enzyme (CYP2D6 [1]): strong inhibition

— paper PMC9464843, “Escitalopram co-prescription in anastrozole-treated breast cancer patients” (Northern Clinics of Istanbul, 2022)
